Reference: US9902759B2, “BH3 peptides and methods of use thereof” (Dana-Farber Cancer Institute, Inc., priority 2002, dated 2018)
Ends that are not written are not given here.

Assays:
[1] = tested on: B-cell lymphoblastic leukemia; experiment: Doxycycline treatment of tet-BCL-2/MMTV-tTA/Eμ-myc leukemic mice; type: in vivo, mouse; settings: doxycycline 500 μg/ml in drinking water, from 4-5 weeks of age
Excerpt: Using standard recombinant DNA technology, the tet-BCL-2 allele was targeted to the DNA methyltransferase 1 locus (FIG. 10). By crossing the new mouse line with the MMTV-tTA line (Jackson Labs) mice were generated which conditionally overexpress BCL-2 in epithelial cells and in B-lineage lymphocytes. Administration of doxycycline successfully suppresses BCL-2 overexpression in these animals. When these mice are crossed with mice expressing myc in the B-lymphocyte lineage (Eμ-myc mice, Jackson Labs) mice which uniformly have B-cell lymphoblastic leukemia were obtained.
To examine the effect of removing BCL-2 expression form the leukemia cells, the effects of doxycycline treatment in a cohort of 28 mice were examined. By genotype, each of the 28 mice contained the tet-BCL-2, the MMTV-tTA, and the Eμ-myc alleles. […] At 4-5 weeks of age, half were treated with doxycycline (500 μg/ml) in drinking water, and half were left untreated. The WBC was measured by hemocytometer using 2 μl blood from tail which was lysed with 0.3% saponin and stained with Hoechst 33258.

GST-BCL-2 [2] = molecular target: T1, GST-BCL-2 (Homo sapiens, UniProt P10415); experiment: BH3 peptide displacement from GST-BCL-2 by fluorescence polarization; type: binding
T1 construct: a GST-BCL-2 fusion protein lacking the C-terminal transmembrane domain was utilized; made in house; host or cells: E. coli BL21 DE3
T1 sequence (P10415 1-218 limits assumed): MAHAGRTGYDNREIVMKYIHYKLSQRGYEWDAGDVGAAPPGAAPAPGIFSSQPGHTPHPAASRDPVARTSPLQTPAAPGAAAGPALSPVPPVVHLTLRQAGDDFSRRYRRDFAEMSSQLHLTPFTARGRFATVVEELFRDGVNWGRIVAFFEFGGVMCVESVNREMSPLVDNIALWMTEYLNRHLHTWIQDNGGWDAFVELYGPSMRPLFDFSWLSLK
Excerpt: (§1) To determine Kd for peptide binding to BCL-2, a GST-BCL-2 fusion protein lacking the C-terminal transmembrane domain was utilized. Peptides were synthesized with a fluorescein amino-terminus using an AHA linker. […] An increase in fluorescence polarization measured on a Perkin-Elmer LS 50B luminescence spectrophotometer was quantitated to calculate binding. A non-linear fit to a sigmoidal dose-response curve utilized the program Origin 6.0 to determine Kd. […] Data were fitted to a sigmoidal curve as above, and IC50 determined.
(§2) GST-BCL-2δC21 fusion proteins were induced in BL21 DE3 by 0.1 mM IPTG. The bacterial pellets were resuspended in lysis buffer (1 mg/ml lysozyme/1% Triton X-100/0.1 mg/ml PMSF/2 μg/ml aprotinin/2 μg/ml leupeptine/1 μg/ml pepstatin A in PBS) and sonicated. After centrifugation at 20,000×g for 20 min, the supernatant was applied to glutathione-agarose beads (Sigma). The beads were washed with PBS and treated with 50 mM glutathione/50 mM TrisHCl, pH8.0 to elute protein. Eluate was dialyzed against binding buffer and concentrated using Amicon centrifugal concentrating devices.

MCL-1 = MCL-1 (Homo sapiens, UniProt Q07820); experiment: MCL-1 binding
Sequence of MCL-1 (Q07820 whole entry, species assumed): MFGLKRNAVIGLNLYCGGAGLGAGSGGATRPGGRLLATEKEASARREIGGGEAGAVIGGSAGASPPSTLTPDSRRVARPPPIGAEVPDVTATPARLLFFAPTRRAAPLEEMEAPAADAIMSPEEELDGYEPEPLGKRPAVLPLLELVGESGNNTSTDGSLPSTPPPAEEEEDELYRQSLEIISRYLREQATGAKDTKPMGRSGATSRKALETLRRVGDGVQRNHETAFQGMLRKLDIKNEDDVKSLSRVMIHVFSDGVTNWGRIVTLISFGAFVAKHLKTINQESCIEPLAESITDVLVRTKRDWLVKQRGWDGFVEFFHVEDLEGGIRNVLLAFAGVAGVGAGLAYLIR

GST-BCL-2 [3] = molecular target: T1, GST-BCL-2; experiment: Fluorescence polarization binding of fluoresceinated BH3 peptides to GST-BCL-2; settings: Kd (nM), BCL-2 Binding, 25 nM fluoresceinated peptide, GST-BCL-2 titration, 37° C.
Excerpt: as §1, §2

Row | Molecule | decrease in WBC [1] | IC50 (GST-BCL-2 [2]) | Kd (MCL-1) | Kd (GST-BCL-2 [3])
1 | C[C@H]1c2cccc(O)c2C(=O)C2=C(O)[C@]3(O)C(=O)C(C(N)=O)=C(O)[C@@H](N(C)C)[C@@H]3[C@@H](O)[C@@H]21 [doxycycline] | 1-2 log | – | – | –
2 | EDIIRNIARHAAQVGASMDR [BIDBH3 mut] | – | > 30 µM | > 2.6 µM | > 1000 nM
